Columns and labels:
[1] = system: Huh-7 HCV replicon cells (sub-line 5-15; genotype 1b); assay: Replicon ELISA cell based assay, genotype 1b; design: species or system HCV genotype 1b; conditions: Hepatitis C virus, Huh-7 genotype 1b replicon (sub-line 5-15), 72 hours
Protocol: (§1) 100 μL of medium containing 10% FCS were added to each well of clear, flat-bottomed 96 well microplates, excepting wells in the top row. Test compound was diluted in assay medium to twice the final required starting concentration from a 40 mM stock solution in DMSO. 200 μL of the starting dilution were introduced into two wells each in the top row and doubling dilutions made down the plate by the sequential transfer of 100 μL aliquots with thorough mixing in the wells; the final 100 μL were discarded. The two bottom rows were not used for compound dilutions. Huh-7 HCV replicon cell monolayers nearing confluency were stripped from growth flasks with versene-trypsin solution and the cells were resuspended in assay medium at either 2×10^5 cells/mL (sub-line 5-15; genotype 1b; Lohmann, V., Komer, F., Koch, J-O., Herian, U., Thielmann, L. And Bartenschlager, R., 1999, Science, 285, pp 110-113) or at 3×10^5 cells/mL (genotype 1a; Gu, B., Gates, A. T., Isken, O., Behrens, S. E. and Sarisky, R. T., J. Virol., 2003, 77, 5352-5359). 100 μL of cell suspension were added to all wells and the plates incubated at 37° C. for 72 hours in a 5% CO2 atmosphere.
(§2) Following incubation, the assay medium was aspirated from the plates. The cell sheets were washed by gentle immersion in phosphate buffered saline (PBS), which was then aspirated off, and fixed with acetone:methanol (1:1) for 5 minutes. Following a further wash with PBS, 100 μL of ELISA diluent (PBS+0.05% v/v Tween 20+2% w/v skimmed milk powder) were added to all wells and the plates incubated at 37° C. for 30 minutes on an orbital platform. The diluent was removed and each well then received 50 μL of a 1/200 dilution of anti-HCV specific, murine, monoclonal antibody (either Virostat #1872 or #1877), except for wells in one of the compound-free control rows which received diluent alone to act as negative controls. The plates were incubated at 37° C. for 2 hours and washed 3 times with PBS/0.05% Tween 20, then 50 μL of horseradish peroxidase conjugated, anti-mouse, rabbit polyclonal serum (Dako #P0260), diluted 1/1000, were added to all wells. The plates were incubated for a further hour, the antibody removed and the cell sheets washed 5 times with PBS/Tween and blotted dry. The assay was developed by the addition of 50 μL of ortho-phenylenediamine/peroxidase substrate in urea/citrate buffer (SigmaFast, Sigma #P-9187) to each well, and colour allowed to develop for up to 15 minutes. The reaction was stopped by the addition of 25 μL per well of 2 M sulphuric acid and the plates were read at 490 nm on a Fluostar Optima spectrophotometer.
(§3) The substrate solution was removed and the plates were washed in tap water, blotted dry and the cells stained with 5% carbol fuchsin in water for 30 minutes. The stain was discarded and the cell sheets washed, dried and examined microscopically to assess cytotoxicity.
(§4) The absorbance values from all compound-free wells that had received both primary and secondary antibodies were averaged to obtain a positive control value. The mean absorbance value from the compound-free wells that had not received the primary antibody was used to provide the negative (background) control value. The readings from the duplicate wells at each compound concentration were averaged and, after the subtraction of the mean background from all values, were expressed as a percentage of the positive control signal. The quantifiable and specific reduction of expressed protein detected by the ELISA in the presence of a drug can be used as a measure of replicon inhibition. GraFit software was used to plot the curve of percentage inhibition against compound concentration and derive the 50% inhibitory concentration (IC50) for the compound.

[2] = system: Huh-7 HCV replicon cells (genotype 1a); assay: Replicon ELISA cell based assay, genotype 1a; design: species or system HCV genotype 1a; conditions: Hepatitis C virus, Huh-7 genotype 1a replicon, 72 hours
Protocol: as §1, §2, §3, §4

Row | SMILES | IC50 [1] | IC50 [2]
1 | COc1cc(C(=O)N2[C@@H](c3nccs3)[C@@H](c3cnccn3)C[C@@]2(CC(C)C)C(=O)O)ccc1C(C)(C)C (racemic) [Compound A, rel-(2S,4S,5R)-2-Isobutyl-1-(4-tert-butyl-3-methoxybenzoyl)-4-(pyrazin-2-yl)-5-(1,3-thiazol-2-yl)pyrrolidine-2-carboxylic acid, reference compound] | 0.1 to 10 µM | 10 to 100 µM
2 | COc1cc(C(=O)N2[C@@H](c3nccs3)[C@@H](c3cnccn3)C[C@@]2(Cc2ccccn2)C(=O)O)ccc1C(C)(C)C (racemic) [Compound C, rel-(2R,4S,5R)-1-(4-tert-Butyl-3-methoxybenzoyl)-2-(pyridin-2-ylmethyl)-4-(pyrazin-2-yl)-5-(1,3-thiazol-2-yl)pyrrolidine-2-carboxylic acid, reference compound] | 0.1 to 10 µM | 10 to 100 µM
3 | COc1cc(C(=O)N2[C@@H](c3nccs3)[C@@H](c3cnccn3)C[C@@]2(Cc2c[nH]cn2)C(=O)O)ccc1C(C)(C)C (racemic) [Compound D, rel-(2R,4S,5R)-1-(4-tert-Butyl-3-methoxybenzoyl)-2-(1H-imidazol-4-yl-methyl)-4-(pyrazin-2-yl)-5-(1,3-thiazol-2-yl)-pyrrolidine-2-carboxylic acid, reference compound] | 0.1 to 10 µM | > 100 µM
4 | COc1cc(C(=O)N2[C@@H](c3cncs3)[C@@H](c3cnccn3)C[C@@]2(CCSC)C(=O)O)ccc1C(C)(C)C (racemic) [Compound E, rel-(2R,4S,5R)-1-(4-tert-Butyl-3-methoxybenzoyl)-2-(2-(methylthio)ethyl)-4-(pyrazin-2-yl)-5-(1,3-thiazol-5-yl)-pyrrolidine-2-carboxylic acid, reference compound] | 0.1 to 10 µM | 10 to 100 µM
5 | COc1cc(C(=O)N2[C@@H](c3nccs3)[C@@H](c3cnccn3)C[C@@]2(CCS(C)(=O)=O)C(=O)O)ccc1C(C)(C)C (racemic) [Compound F, rel-(2R,4S,5R)-1-(4-tert-Butyl-3-methoxybenzoyl)-2-(2-(methylsulphonyl)ethyl)-4-pyrazin-2-yl-5-(1,3-thiazol-2-yl)-pyrrolidine-2-carboxylic acid, reference compound] | > 10 µM | > 100 µM
6 | COc1cc(C(=O)N2[C@@H](c3nccs3)[C@@H](c3cnccn3)C[C@@]2(Cc2ccccc2)C(=O)O)ccc1C(C)(C)C (racemic) [Compound G, rel-(2R,4S,5R)-1-(4-tert-Butyl-3-methoxybenzoyl)-2-(phenylmethyl)-4-(pyrazin-2-yl)-5-(1,3-thiazol-2-yl)pyrrolidine-2-carboxylic acid, reference compound] | 0.1 to 10 µM | 10 to 100 µM
7 | COc1cc(C(=O)N2[C@@H](c3nccs3)[C@@H](c3cnccn3)C[C@@]2(Cc2cscn2)C(=O)O)ccc1C(C)(C)C (racemic) [Example 1, rel-(2R,4S,5R)-1-(3-Methoxy-4-tert-butylbenzoyl)-4-(pyrazin-2-yl)-2-(1,3-thiazol-4-ylmethyl)-5-(1,3-thiazol-2-yl)pyrrolidine-2-carboxylic acid] | < 0.1 µM | < 10 µM
8 | COc1cc(C(=O)N2[C@@H](c3nccs3)[C@@H](c3cnccn3)C[C@@]2(Cc2nccs2)C(=O)O)ccc1C(C)(C)C (racemic) [Example 3, rel-(2R,4S,5R)-1-(3-Methoxy-4-tert-butylbenzoyl)-4-(pyrazin-2-yl)-2-(1,3-thiazol-2-ylmethyl)-5-(1,3-thiazol-2-yl)pyrrolidine-2-carboxylic acid] | < 0.1 µM | < 10 µM
9 | COc1cc(C(=O)N2[C@@H](c3ncc(C)s3)[C@@H](c3cnccn3)C[C@@]2(Cc2ccsn2)C(=O)O)ccc1C(C)(C)C (racemic) [Example 5, rel-(2R,4S,5R)-1-(3-Methoxy-4-tert-butylbenzoyl)-5-(5-methyl-1,3-thiazol-2-yl)-4-(pyrazin-2-yl)-2-(1,2-thiazol-3-ylmethyl)pyrrolidine-2-carboxylic acid] | < 0.1 µM | < 10 µM
10 | COc1cc(C(=O)N2[C@@H](c3nccs3)[C@@H](c3cnccn3)C[C@@]2(Cc2ccsn2)C(=O)O)ccc1C(C)(C)C (racemic) [Example 7, rel-(2R,4S,5R)-1-(3-Methoxy-4-tert-butylbenzoyl)-4-(pyrazin-2-yl)-2-(1,2-thiazol-3-ylmethyl)-5-(1,3-thiazol-2-yl)pyrrolidine-2-carboxylic acid] | < 0.1 µM | < 10 µM
11 | COc1cc(C(=O)N2[C@@H](c3ncc(C)s3)[C@@H](c3cnccn3)C[C@@]2(Cn2cccn2)C(=O)O)ccc1C(C)(C)C (racemic) [Example 9, rel-(2R,4S,5R)-1-(3-Methoxy-4-tert-butylbenzoyl)-5-(5-methyl-1,3-thiazol-2-yl)-4-(pyrazin-2-yl)-2-(1H-pyrazol-1-ylmethyl)pyrrolidine-2-carboxylic acid] | < 0.1 µM | < 10 µM
12 | COc1cc(C(=O)N2[C@@H](c3nccs3)[C@@H](c3cnccn3)C[C@@]2(Cn2cccn2)C(=O)O)ccc1C(C)(C)C (racemic) [Example 11, rel-(2R,4S,5R)-1-(3-Methoxy-4-tert-butylbenzoyl)-4-(pyrazin-2-yl)-2-(1H-pyrazol-1-ylmethyl)-5-(1,3-thiazol-2-yl)pyrrolidine-2-carboxylic acid] | < 0.1 µM | < 10 µM
13 | COc1cc(C(=O)N2[C@@H](c3ncc(C)s3)[C@@H](c3cnccn3)C[C@@]2(Cc2nccs2)C(=O)O)ccc1C(C)(C)C (racemic) [Example 13, rel-(2R,4S,5R)-1-(3-Methoxy-4-tert-butylbenzoyl)-5-(5-methyl-1,3-thiazol-2-yl)-4-(pyrazin-2-yl)-2-(1,3-thiazol-2-ylmethyl)pyrrolidine-2-carboxylic acid] | < 0.1 µM | < 10 µM
14 | COc1cc(C(=O)N2[C@@H](c3ncc(C)s3)[C@@H](c3cnccn3)C[C@@]2(Cc2cscn2)C(=O)O)ccc1C(C)(C)C (racemic) [Example 15, rel-(2R,4S,5R)-1-(3-Methoxy-4-tert-butylbenzoyl)-5-(5-methyl-1,3-thiazol-2-yl)-4-(pyrazin-2-yl)-2-(1,3-thiazol-4-ylmethyl)pyrrolidine-2-carboxylic acid] | < 0.1 µM | < 10 µM
15 | COc1cc(C(=O)N2[C@@H](c3nccs3)[C@@H](c3cnccn3)C[C@@]2(CC(C)C)C(=O)O)ccc1C(C)(C)C (single isomer, unassigned; enantiomer a) [Compound B, reference compound] | 0.1 to 10 µM | 10 to 100 µM
16 | COc1cc(C(=O)N2[C@@H](c3nccs3)[C@@H](c3cnccn3)C[C@@]2(Cc2cscn2)C(=O)O)ccc1C(C)(C)C (single isomer, unassigned; enantiomer a) [Example 2] | < 0.1 µM | < 10 µM
17 | COc1cc(C(=O)N2[C@@H](c3nccs3)[C@@H](c3cnccn3)C[C@@]2(Cc2nccs2)C(=O)O)ccc1C(C)(C)C (single isomer, unassigned; enantiomer a) [Example 4] | < 0.1 µM | < 10 µM
18 | COc1cc(C(=O)N2[C@@H](c3ncc(C)s3)[C@@H](c3cnccn3)C[C@@]2(Cc2ccsn2)C(=O)O)ccc1C(C)(C)C (single isomer, unassigned; enantiomer a) [Example 6] | < 0.1 µM | < 10 µM
19 | COc1cc(C(=O)N2[C@@H](c3nccs3)[C@@H](c3cnccn3)C[C@@]2(Cc2ccsn2)C(=O)O)ccc1C(C)(C)C (single isomer, unassigned; enantiomer a) [Example 8] | < 0.1 µM | < 10 µM
20 | COc1cc(C(=O)N2[C@@H](c3ncc(C)s3)[C@@H](c3cnccn3)C[C@@]2(Cn2cccn2)C(=O)O)ccc1C(C)(C)C (single isomer, unassigned; enantiomer a) [Example 10] | < 0.1 µM | < 10 µM

Source: patent US20090227600A1, “4-(PYRAZINE-2-YL) -PYRROLIDINE -2-CARBOXYLIC ACID COMPOUNDS AND DERIVATIVES THEREOF AS HEPATITIS C VIRUS INHIBITORS” (priority 2004, published 2009)
